Measurements taken from US8778939B2, “Compounds” (Glaxo Group Limited, priority 2009, dated 2014).

What was measured:
Type in all cases: biochemical
[1] = target: T1, 6His-Tev-LRRK2 (1326-2527) (Homo sapiens, UniProt Q5S007); assay: LRRK2 peptide substrate assay; details: Biotin-LRRKtide peptide substrate, ATP at Km; read-out: pIC50 in the LRRK2 peptide substrate assay (converted)
T1 construct: A LRRK2 cDNA encoding residues 1326-2527 was received from Dundee University; made in house; host or cells: Spodoptera frugiperda (Sf9) insect cells, baculovirus
T1 sequence (Q5S007 1326-2527): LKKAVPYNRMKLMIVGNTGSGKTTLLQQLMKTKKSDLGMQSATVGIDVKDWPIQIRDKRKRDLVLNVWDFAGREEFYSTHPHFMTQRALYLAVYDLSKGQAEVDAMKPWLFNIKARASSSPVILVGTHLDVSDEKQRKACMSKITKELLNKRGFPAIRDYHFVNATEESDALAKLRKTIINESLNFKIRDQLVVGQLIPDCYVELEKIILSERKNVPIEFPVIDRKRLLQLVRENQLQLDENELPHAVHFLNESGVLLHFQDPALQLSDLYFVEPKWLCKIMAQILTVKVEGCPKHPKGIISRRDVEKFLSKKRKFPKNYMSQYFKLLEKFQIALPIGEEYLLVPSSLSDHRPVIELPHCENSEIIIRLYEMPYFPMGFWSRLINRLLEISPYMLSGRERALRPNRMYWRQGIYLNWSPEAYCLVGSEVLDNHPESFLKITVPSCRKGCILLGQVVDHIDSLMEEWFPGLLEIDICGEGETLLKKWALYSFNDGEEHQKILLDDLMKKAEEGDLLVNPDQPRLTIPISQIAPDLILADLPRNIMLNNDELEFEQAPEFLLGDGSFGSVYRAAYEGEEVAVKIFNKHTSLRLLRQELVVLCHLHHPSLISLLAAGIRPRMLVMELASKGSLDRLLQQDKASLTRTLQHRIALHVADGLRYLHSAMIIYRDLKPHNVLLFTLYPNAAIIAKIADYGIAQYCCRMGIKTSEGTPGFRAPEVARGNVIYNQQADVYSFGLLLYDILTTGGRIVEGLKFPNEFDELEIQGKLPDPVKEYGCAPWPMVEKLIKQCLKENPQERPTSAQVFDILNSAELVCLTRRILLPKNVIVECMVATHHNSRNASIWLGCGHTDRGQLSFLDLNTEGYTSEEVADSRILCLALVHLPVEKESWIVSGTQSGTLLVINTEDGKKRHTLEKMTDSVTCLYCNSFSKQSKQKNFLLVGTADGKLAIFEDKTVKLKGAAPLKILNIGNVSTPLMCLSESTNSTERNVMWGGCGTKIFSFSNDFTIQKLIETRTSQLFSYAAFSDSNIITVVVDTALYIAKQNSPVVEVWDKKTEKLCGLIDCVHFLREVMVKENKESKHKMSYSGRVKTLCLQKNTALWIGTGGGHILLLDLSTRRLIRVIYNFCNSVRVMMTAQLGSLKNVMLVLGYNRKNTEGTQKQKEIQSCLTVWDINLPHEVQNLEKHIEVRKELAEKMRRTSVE
Outline: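 Phosphorylation of biotin-LRRKtide/moesin substrate read by time-resolved FRET (Eu anti-rabbit IgG, streptavidin-APC, phospho-ERM Thr558 antibody; 665/620 nm). The 6His-Tev-LRRK2 (1326-2527) enzyme solution was 80 nM, in 50 mM Hepes pH 7.2 with 10 mM MgCl2 and 1 mM DTT. Incubation 1-2 h at room temperature; compounds tested up to 30 μM final, 1:4 dilutions.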

[2] = target: T1, 6His-Tev-LRRK2 (1326-2527); assay: LRRK2 AlphaScreen protein substrate assay; details: GST-PS-Moesin (400-577) substrate, ATP at Km; read-out: pIC50 in the LRRK2 alphascreen protein substrate assay (converted)
Experimental: a) 100 nl of a 1:4 serial dilution of test compound with a top final assay concentration of 30 μM is added to certain wells in a low volume 384 well black plate. 100 nl of DMSO is used in certain wells as controls.
b) 3 μl enzyme solution (80 nM purified recombinant 6His-Tev-LRRK2 (1326-2527) in assay buffer: 50 mM Hepes (pH 7.2), 10 mM MgCl2, 150 mM NaCl, 5% glycerol, 0.0025% triton X-100 and 1 mM DTT) is added to certain wells.
Plates are then incubated for a further 1-2 hours at room temperature (incubation time varies depending upon rate and linearity of reaction with differing enzyme batches).
d) 6 μl detection solution (1:250 dilution of AlphaLisa Protein A Acceptor beads (PerkinElmer), 1:64 dilution of AlphaLisa Gluthathione Donor beads (PerkinElmer) and 1:600 dilution (dilution determined on a batch to batch basis) of Phospho-Ezrin (Thr567)/Radixin (Thr564)/Moesin (Thr558) Polyclonal Antibody (New England Biolabs) in a buffer: 50 mM Hepes (pH 7.5), 250 mM NaCl, 60 mM EDTA, 1% PEG and 0.01% Brij 35) is added to each well. Plates are then incubated for a further 2 hours at room temperature in the dark before reading on an EnVision™ plate reader with AlphaScreen HTS turbo option module and AlphaScreen settings. Data is analysed using ActivityBase software (IDBS).

[3] = target: T1, 6His-Tev-LRRK2 (1326-2527); assay: LRRK2 AlphaScreen desensitised protein substrate assay; details: excess of ATP present (2 mM ATP); read-out: pIC50 in the LRRK2 alphascreen desensitised protein substrate assay (converted)
Outline: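 AlphaScreen readout with phospho-Ezrin/Radixin/Moesin antibody after a 20 min room-temperature reaction at 2 mM ATP (substrate solution). Enzyme: 6His-Tev-LRRK2 (1326-2527) at 80 nM in enzyme solution, Hepes pH 7.2 buffer; test compound serially diluted 1:4 from 30 μM final.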

SMILES	IC50 [1] [nM]	IC50 [2] [nM]	IC50 [3] [nM]
O=C(Nc1cccnc1)c1cc(Br)ccc1OCc1ccc(Cl)cc1 [Example 9, 5-Bromo-2-{[(4-chlorophenyl)methyl]oxy}-N-3-pyridinylbenzamide]	≤ 100	≤ 100	≤ 20000
O=C(Nc1cccnc1)c1cc(Br)ccc1OCc1cccc(Cl)c1 [Example 13, 5-Bromo-2-{[(3-chlorophenyl)methyl]oxy}-N-3-pyridinylbenzamide]	≤ 100	≤ 100	> 25100
N#Cc1cccc(COc2ccc(Br)cc2C(=O)Nc2cccnc2)c1 [Example 15, 5-Bromo-2-{[(3-cyanophenyl)methyl]oxy}-N-3-pyridinylbenzamide]	≤ 100	≤ 100	> 25100
O=C(Nc1cccnc1)c1cc(O)ccc1OCc1ccccc1 [Example 29, 5-Hydroxy-2-[(phenylmethyl)oxy]-N-3-pyridinylbenzamide]	≤ 100	≤ 100	≤ 20000
CN(C)CCOc1ccc(OCc2ccccc2)c(C(=O)Nc2cccnc2)c1 [Example 30, 5-{[2-(Dimethylamino)ethyl]oxy}-2-[(phenylmethyl)oxy]-N-3-pyridinylbenzamide]	≤ 100	≤ 100	≤ 20000
CN1CCC(Oc2ccc(OCc3ccccc3)c(C(=O)Nc3cccnc3)c2)CC1 [Example 31, 5-[(1-Methyl-4-piperidinyl)oxy]-2-[(phenylmethyl)oxy]-N-3-pyridinylbenzamide]	≤ 100	≤ 100	≤ 20000
CN1CCN(c2ccc(OCc3ccccc3)c(C(=O)Nc3cccnc3)c2)CC1 [Example 32, 5-(4-Methyl-1-piperazinyl)-2-[(phenylmethyl)oxy]-N-3-pyridinylbenzamide]	≤ 10	≤ 100	≤ 20000
O=C(Nc1cccnc1)c1cc(N2CCCCC2)ccc1OCc1ccccc1 [Example 33, 2-[(Phenylmethyl)oxy]-5-(1-piperidinyl)-N-3-pyridinylbenzamide]	≤ 100	≤ 100	≤ 20000
